# Assay results as given in US20230241024A1, “METHODS OF TREATING METABOLIC DISORDERS” (Sunovion Pharmaceuticals Inc., priority 2021, published 2023).
# What was measured:
# [1] = test system: lean, fasted, male CD1 mice; assay: Acute intravenous glucose tolerance test (IVGTT), plasma glucose and insulin (Example 6)
# Method: (§1) A vehicle control group was included in the study design. […] Blood samples were taken at various timepoints during the test and subsequently assessed for plasma glucose and insulin content.
# Via a lateral tail vein, a baseline blood sample (B1; 30 µl) was taken from all animals prior to vehicle or drug treatment. Five minutes later, mice were dosed with Treatment 1 detailed by the oral route (see above table; approx. 30 minutes pre-glucose). Thirty minutes later, mice were dosed with Treatment 2 by the intravenous route (by a lateral tail vein). […] A B2 sample (30 µl) was also taken briefly before glucose administration. All blood samples (from the tail vein) were collected into lithium heparinised tubes (Sarstedt Microvette CB300LH) and plasma separated by centrifugation to produce a single aliquot of plasma which was frozen (approx. -80° C.) and subsequently assayed for glucose (Thermoelectron infinity glucose reagent, TR15421) and insulin (Alpco Ultrasensitive mouse insulin ELISA) as single replicates.
# lean male C57BL/6J mice = assay: Acute oral glucose tolerance test (OGTT), plasma glucose and insulin, lean mice (Example 1.1); design: Plasma glucose AUC Mean: dose or concentration left out as unconfirmed
# Method: as §1
# Mice were weighed on the day of arrival (Thursday) and singly housed upon arrival and throughout the study in polypropylene cages on a normal phase 12 h light-dark cycle (lights on 07:00). Cages contained sawdust, red acrylic house, red acrylic tunnel, sizzlenest and nestlet at a temperature of 21±4° C. Upon arrival, mice were weighed and given wet mash to aid recovery from transport. Mice were weighed the following day and on the Monday of the following week.
# Experimental Procedures: Animals underwent a three-day handling phase, which commenced five days after arrival. On the final day of handling the mice were dosed orally once with vehicle. At the start of the handling phase, animals were weighed (to the nearest 0.1 g using an electronic top-pan balance) and allocated into 6 weight-matched treatment groups by a Statistician. On the day of baseline dosing, mice were fasted for approximately 16 hours to a timed schedule, beginning at 16:45. The mice were placed into individual clean cages with access to water, but not food. The following morning the mice were moved to a separate room which was maintained with the same environmental conditions and underwent an OGTT. […] Five minutes later, the mice in groups A, C, D, E and F were dosed by the oral route (30 minutes pre-glucose). […] All mice were given an oral glucose load of D-glucose at a dose of 2.0 g/kg (400 mg/mL solution; dose volume 5 mL/kg). Further blood samples (30 µl) were taken 3 minutes before glucose administration (B2) and at 15 (20 µl), 30 (20 µl), 60 (25 µl) and 120 (25 µl) minutes post glucose administration. All blood samples were collected into lithium heparinised tubes (Sarstedt Microvette CB300LH) and plasma separated by centrifugation to produce a single aliquot of plasma which was frozen (-80° C.) and subsequently assayed for glucose (Thermoelectron infinity glucose reagent, TR15421) and insulin (Alpco mouse ultrasensitive insulin kit 80 INSMSU-E10).
# Upon completion of the OGTT, all animals were humanely killed by a Schedule 1 method (exposure to a rising concentration of CO2 with confirmation of death by cervical dislocation). A terminal blood sample was taken from groups A, C, D, E and F only by cardiac puncture into a lithium heparin-coated tube (Sarstedt CB300LH) and the plasma separated by centrifugation.
# male db/db mice = assay: Acute oral glucose tolerance test (OGTT), plasma glucose and insulin, diabetic db/db mice (Example 1.2)
# Method: as §1
# Mice were weighed on the day of arrival (Thursday) and group housed in polypropylene cages on a normal phase 12 h light-dark cycle (lights on 07:00). Cages contained sawdust, red house, red tunnel, Sizzlenest and nestlet at a temperature of 24±2° C. Upon arrival, mice were weighed and given wet mash to aid recovery from transport. Mice were weighed the following day and on the Monday of the following week.
# Experimental Procedures: Animals underwent a three-day handling phase, which commenced five days after arrival. On the final day of handling the mice were dosed orally once with vehicle. At the start of the handling phase, animals were weighed (to the nearest 0.1 g using an electronic top-pan balance) and allocated into 6, weight matched treatment groups by a Statistician. On the day of baseline dosing, mice were fasted for approximately 16 hours to a timed schedule, beginning at 16:45. The mice were placed into individual clean cages with access to water, but not food. The following morning the mice were moved to a separate room which was maintained with the same environmental conditions and underwent an OGTT. […] Five minutes later, the mice in groups A, C, D, E and F were dosed by the oral route (30 minutes pre-glucose). […] All mice were given an oral glucose load of D-glucose at a dose of 2.0 g/kg (400 mg/mL solution; dose volume 5 mL/kg). Further blood samples (30 µl) were taken 3 minutes before glucose administration (B2) and at 15 (20 µl), 30 (20 µl), 60 (25 µl) and 120 (25 µl) minutes post glucose administration. All blood samples were collected into lithium heparinised tubes (Sarstedt Microvette CB300LH) and plasma separated by centrifugation to produce a single aliquot of plasma which was frozen (-80° C.) and subsequently assayed for glucose (Thermoelectron infinity glucose reagent, TR15421) and insulin (Alpco mouse ultrasensitive insulin kit 80 INSMSU-E10).
# Upon completion of the OGTT, all animals were humanely killed by a Schedule 1 method (exposure to a rising concentration of CO2 with confirmation of death by cervical dislocation). A terminal blood sample was taken from groups A, C, D, E and F only by cardiac puncture into a lithium heparin-coated tube (Sarstedt CB300LH) and the plasma separated by centrifugation. A single plasma aliquot (approximately 100 µl) was stored frozen prior to shipment of the compound to Charles River Laboratories, USA.
# [2] = 40 µg/kg iv group, Post-treatment baseline (B2)
# [3] = 40 µg/kg iv with Glucose 1 g/kg
# [4] = 40 µg/kg iv with Glucose 1 g/kg, 5 minutes
# [5] = 40 µg/kg iv with Glucose 1 g/kg, 10 minutes
# [6] = 40 µg/kg iv with Glucose 1 g/kg, 30 minutes
# [7] = 40 µg/kg iv with Glucose 1 g/kg, 60 minutes
# [8] = 15 minutes, Exendin-4 1 µg/kg ip
# [9] = 30 minutes, Exendin-4 1 µg/kg ip
# [10] = 60 minutes, Exendin-4 1 µg/kg ip
# [11] = 120 minutes, Exendin-4 1 µg/kg ip
# [12] = AUC above baseline (0-60 minutes), Exendin-4 1 µg/kg ip
# [13] = AUC above baseline (0-120 minutes), Exendin-4 1 µg/kg ip
# [14] = Area under curve (0-60 minutes), Exendin-4 1 µg/kg ip
# [15] = Area under curve (0-120 minutes), Exendin-4 1 µg/kg ip
# [16] = Area under curve (0-120 minutes), Exendin-4 ip
# [17] = Post-treatment baseline (B2), Exendin-4 1 µg/kg ip
# [18] = 15 minutes, Exendin-4 300 µg/kg ip
# [19] = 30 minutes, Exendin-4 300 µg/kg ip
# [20] = 60 minutes, Exendin-4 300 µg/kg ip
# [21] = 120 minutes, Exendin-4 300 µg/kg ip
# [22] = AUC above baseline (0-60 minutes), Exendin-4 300 µg/kg ip
# [23] = AUC above baseline (0-120 minutes), Exendin-4 300 µg/kg ip
# [24] = Area under curve (0-60 minutes), Exendin-4 300 µg/kg ip
# [25] = Area under curve (0-60 minutes), Exendin-4 300 µpg/kg ip
# [26] = Area under curve (0-120 minutes), Exendin-4 300 µg/kg ip
# [27] = Area under curve (0–120 minutes), Exendin-4 300 µg/kg ip
# [28] = Post-treatment baseline (B2), Exendin-4 300 µg/kg ip
substance,measurement,setting,value
Exendin-4: GLP 1 receptor agonist utilised as a positive control,Plasma glucose % of vehicle,[1]; [2],98.6%
same,Plasma glucose Mean,[1]; [2],9.30 mM
same,Plasma insulin % of vehicle,[1]; [2],95.1%
same,Plasma insulin Mean,[1]; [2],0.17 ng/mL
same,"Plasma glucose - AUC above baseline (AUCB2) (0-60 minutes), Mean",[1]; [3],3.22 mM·h
same,"Plasma glucose AUC (0-60 minutes), % of vehicle",[1]; [3],73.5%
same,"Plasma glucose AUC, Area under curve (0-60 minutes), Mean",[1]; [3],12.65 mM·h
same,"Plasma glucose AUCB2 (0-60 minutes), Difference from vehicle",[1]; [3],-4.43 mM·h
same,"Plasma insulin - AUC above baseline (AUCB2) (0-60 minutes), Mean",[1]; [3],0.73 ng·h/mL
same,"Plasma insulin - Area under curve AUC (0-60 minutes), Mean",[1]; [3],0.93 ng·h/mL
same,"Plasma insulin AUC (0-60 minutes), % of vehicle",[1]; [3],218.8%
same,"Plasma insulin AUCB2 (0-60 minutes), Difference from vehicle",[1]; [3],0.48 ng·h/mL
same,Plasma glucose % of vehicle,[1]; [4],92.6%
same,Plasma glucose Mean,[1]; [4],28.43 mM
same,Plasma insulin % of vehicle,[1]; [4],347.3%
same,Plasma insulin Mean,[1]; [4],1.99 ng/mL
same,Plasma glucose % of vehicle,[1]; [5],89.4%
same,Plasma glucose Mean,[1]; [5],22.15 mM
same,Plasma insulin % of vehicle,[1]; [5],327.2%
same,Plasma insulin Mean,[1]; [5],1.84 ng/mL
same,Plasma glucose % of vehicle,[1]; [6],59.0%
same,Plasma glucose Mean,[1]; [6],8.35 mM
same,Plasma insulin % of vehicle,[1]; [6],149.8%
same,Plasma insulin Mean,[1]; [6],0.57 ng/mL
same,Plasma glucose % of vehicle,[1]; [7],57.8%
same,Plasma glucose Mean,[1]; [7],6.36 mM
same,Plasma insulin % of vehicle,[1]; [7],117.2%
same,Plasma insulin Mean,[1]; [7],0.42 ng/mL
same,plasma insulin vs vehicle,"[1]; Exendin-4 40 µg/kg iv, 5, 10 and 30 minutes post glucose load",statistically significant increase
same,Plasma insulin peak,"[1]; Exendin-4 40 µg/kg iv, 5 minutes post glucose load",1.99 ng/mL
same,Plasma glucose % of vehicle,lean male C57BL/6J mice; [8],65.9%
same,Plasma glucose Mean,lean male C57BL/6J mice; [8],15.13 mM
same,Plasma insulin % of vehicle,lean male C57BL/6J mice; [8],154.4%
same,Plasma insulin Mean,lean male C57BL/6J mice; [8],1.92 ng/mL
same,Plasma glucose % of vehicle,lean male C57BL/6J mice; [9],53.3%
same,Plasma glucose Mean,lean male C57BL/6J mice; [9],12.81 mM
same,Plasma insulin % of vehicle,lean male C57BL/6J mice; [9],110.3%
same,Plasma insulin Mean,lean male C57BL/6J mice; [9],1.10 ng/mL
same,Plasma glucose % of vehicle,lean male C57BL/6J mice; [10],58.4%
same,Plasma glucose Mean,lean male C57BL/6J mice; [10],8.56 mM
same,Plasma insulin % of vehicle,lean male C57BL/6J mice; [10],73.1%
same,Plasma insulin Mean,lean male C57BL/6J mice; [10],0.37 ng/mL
same,Plasma glucose % of vehicle,lean male C57BL/6J mice; [11],74.8%
same,Plasma glucose Mean,lean male C57BL/6J mice; [11],7.46 mM
same,Plasma insulin % of vehicle,lean male C57BL/6J mice; [11],63.5%
same,Plasma insulin Mean,lean male C57BL/6J mice; [11],0.27 ng/mL
same,Plasma glucose AUCB2 Difference from vehicle,lean male C57BL/6J mice; [12],-8.32 mM·h
same,Plasma glucose AUCB2 Mean,lean male C57BL/6J mice; [12],1.49 mM·h
same,Plasma insulin AUC above baseline Difference from vehicle,lean male C57BL/6J mice; [12],0.02 ng·h/mL
same,Plasma insulin AUC above baseline Mean,lean male C57BL/6J mice; [12],0.72 ng·h/mL
same,Plasma glucose AUCB2 Difference from vehicle,lean male C57BL/6J mice; [13],-12.99 mM·h
same,Plasma glucose AUCB2 Mean,lean male C57BL/6J mice; [13],-0.58 mM·h
same,Plasma insulin AUC above baseline Difference from vehicle,lean male C57BL/6J mice; [13],-0.28 ng·h/mL
same,Plasma insulin AUC above baseline Mean,lean male C57BL/6J mice; [13],0.76 ng·h/mL
same,Plasma glucose AUC % of vehicle,lean male C57BL/6J mice; [14],61.5%
same,Plasma insulin AUC % of vehicle,lean male C57BL/6J mice; [14],125.7%
same,Plasma insulin AUC Mean,lean male C57BL/6J mice; [14],1.06 ng·h/mL
same,Plasma insulin AUC % of vehicle,lean male C57BL/6J mice; [15],110.9%
same,Plasma insulin AUC Mean,lean male C57BL/6J mice; [15],1.48 ng·h/mL
same,Plasma glucose AUC % of vehicle,lean male C57BL/6J mice; [16],63.6%
same,Plasma glucose AUC Mean,lean male C57BL/6J mice; [16],20.44 mM·h
same,plasma glucose vs vehicle,"lean male C57BL/6J mice; Exendin-4 1 µg/kg ip 10 minutes before glucose load, all timepoints post-glucose",statistically significant (p<0.01) reduction
same,Plasma glucose % of vehicle,lean male C57BL/6J mice; [17],111.4%
same,Plasma glucose Mean,lean male C57BL/6J mice; [17],10.66 mM
same,Plasma insulin % of vehicle,lean male C57BL/6J mice; [17],221.2%
same,Plasma insulin Mean,lean male C57BL/6J mice; [17],0.34 ng/mL
same,Plasma glucose % of vehicle,male db/db mice; [18],39.5%
same,Plasma glucose Mean,male db/db mice; [18],20.37 mM
same,Plasma insulin % of vehicle,male db/db mice; [18],176.4%
same,Plasma insulin Mean,male db/db mice; [18],11.33 ng/mL
same,Plasma glucose % of vehicle,male db/db mice; [19],34.7%
same,Plasma glucose Mean,male db/db mice; [19],19.07 mM
same,Plasma insulin % of vehicle,male db/db mice; [19],228.5%
same,Plasma insulin Mean,male db/db mice; [19],9.42 ng/mL
same,Plasma glucose % of vehicle,male db/db mice; [20],32.9%
same,Plasma glucose Mean,male db/db mice; [20],12.91 mM
same,Plasma insulin % of vehicle,male db/db mice; [20],210.5%
same,Plasma insulin Mean,male db/db mice; [20],8.95 ng/mL
same,Plasma glucose % of vehicle,male db/db mice; [21],52.4%
same,Plasma glucose Mean,male db/db mice; [21],10.71 mM
same,Plasma insulin % of vehicle,male db/db mice; [21],238.7%
same,Plasma insulin Mean,male db/db mice; [21],9.87 ng/mL
same,Plasma glucose AUC above baseline Difference from vehicle,male db/db mice; [22],-28.49 mM·h
same,Plasma glucose AUC above baseline Mean,male db/db mice; [22],-1.09 mM·h
same,Plasma insulin AUC above baseline Difference from vehicle,male db/db mice; [22],-0.08 ng·h/mL
same,Plasma insulin AUC above baseline Mean,male db/db mice; [22],0.89 ng·h/mL
same,Plasma glucose AUC above baseline Difference from vehicle,male db/db mice; [23],-47.99 mM·h
same,Plasma glucose AUC above baseline Mean,male db/db mice; [23],-8.04 mM·h
same,Plasma insulin AUC above baseline Difference from vehicle,male db/db mice; [23],-0.35 ng·h/mL
same,Plasma insulin AUC above baseline Mean,male db/db mice; [23],0.98 ng·h/mL
same,Plasma insulin AUC % of vehicle,male db/db mice; [24],213.0%
same,Plasma insulin AUC Mean,male db/db mice; [24],9.93 ng·h/mL
same,Plasma glucose AUC % of vehicle,male db/db mice; [25],38.8%
same,Plasma glucose AUC Mean,male db/db mice; [25],17.77 mM·h
same,Plasma insulin AUC % of vehicle,male db/db mice; [26],223.1%
same,Plasma insulin AUC Mean,male db/db mice; [26],19.34 ng·h/mL
same,Plasma glucose AUC % of vehicle,male db/db mice; [27],39.6%
same,Plasma glucose AUC Mean,male db/db mice; [27],30.22 mM·h
same,plasma glucose vs vehicle,"male db/db mice; Exendin-4 300 µg/kg ip, all timepoints post-glucose",statistically significant (p<0.001) reduction
same,Plasma glucose Mean,male db/db mice; [28],17.81 mM
same,Plasma insulin % of vehicle,male db/db mice; [28],227.2%
same,Plasma insulin Mean,male db/db mice; [28],8.99 ng/mL
